Source: patent US20250115654A1, “PHARMACEUTICAL COMPOSITION OF GLP-1 RECEPTOR AND GIP RECEPTOR DUAL AGONIST, AND USE THEREOF” (FUJIAN SHENGDI PHARMACEUTICAL CO., LTD., priority 2021, published 2025)
Numbered stars: 1 amine (or outer) side, 2 acyl side, 3 side chain; on linkers, the order of the positions; unused ones are H or OH. Square brackets hold non-standard residues; d marks the D form. Side chains are listed from the residue outwards. Peptide text beside a SMILES is read from it. * marks the point of attachment. C20 diacid = O=C(O)CCCCCCCCCCCCCCCCCCC(=O)*; γGlu = O=C(O)[C@H](CCC(=O)[*:2])N[*:1]; AEEA = NCCOCCOCC(=O)O; Aib = CC(C)(N)C(=O)O

Test system: DIO mice
Test: Food intake of DIO (diet-induced obesity) mice
Format: in vivo, C57BL/6 mice
Protocol: High-fat food-induced-obesity male C57BL/6 mice (weighing 35-55 g, aged 10-12 weeks, purchased from Shanghai Jiesijie Laboratory Animal Co., Ltd.) were tested. […] According to the experimental design, the body weight of each mouse was measured and recorded on day 0, day 3, day 6, and so on to day 27, the average body weight of each group of mice was calculated, and body weight change curves were plotted by taking the body weight on the first day as the standard. At the end, the fat and other visceral organs of each part of the mice were taken out and weighed, and the viscera/brain ratio for fat in each part of each mouse was calculated. The effect of the drug on the fat was determined by comparing the change in the viscera/brain ratio for fat of different parts of each group of mice.
The food intake of mice in each group was measured daily during the experiment.

Compound: CC[C@H](C)[C@H](NC(=O)[C@H](CCCCN)NC(=O)[C@H](CCC(=O)O)NC(=O)[C@H](CCCCNC(=O)COCCOCCNC(=O)COCCOCCNC(=O)CC[C@H](NC(=O)CCCCCCCCCCCCCCCCCCC(=O)O)C(=O)O)NC(=O)[C@H](Cc1ccc(O)cc1)NC(=O)[C@@H](NC(=O)[C@H](CO)NC(=O)[C@H](Cc1ccc(O)cc1)NC(=O)[C@H](CC(=O)O)NC(=O)[C@H](CO)NC(=O)[C@@H](NC(=O)[C@H](Cc1ccccc1)NC(=O)[C@@H](NC(=O)CNC(=O)[C@H](CCC(=O)O)NC(=O)C(C)(C)NC(=O)[C@@H](N)Cc1ccc(O)cc1)[C@@H](C)O)[C@@H](C)O)[C@@H](C)CC)C(=O)N[C@@H](C)C(=O)N[C@@H](C)C(=O)N[C@@H](CCC(N)=O)C(=O)N[C@@H](CCC(=O)O)C(=O)N[C@@H](Cc1ccccc1)C(=O)N[C@H](C(=O)N[C@@H](CC(N)=O)C(=O)N[C@@H](Cc1c[nH]c2ccccc12)C(=O)N[C@@H](CC(C)C)C(=O)N[C@@H](CC(C)C)C(=O)N[C@@H](C)C(=O)NCC(=O)NCC(=O)N1CCC[C@H]1C(=O)N[C@@H](CO)C(=O)N[C@@H](CO)C(=O)NCC(=O)N[C@@H](C)C(=O)N1CCC[C@H]1C(=O)N1CCC[C@H]1C(=O)N1CCC[C@H]1C(=O)N[C@@H](CO)C(N)=O)C(C)C [Compound 18#] (H-Y[Aib]EGTFTSDYSIYK([AEEA-AEEA-γGlu-C20 diacid])EKIAAQEFVNWLLAGGPSSGAPPPS-NH2)
- cumulative food intake (3 nmol/kg, 28 days after the administration): 58.2 g
- daily food intake ration (3 nmol/kg, day 1 after administration): 0.6 ± 0.1 g
- daily food intake ration (3 nmol/kg, day 1 after administration, listed as 18#): 0.6 g
- daily food intake ration (3 nmol/kg, day 2 after administration): 1.3 ± 0.5 g
- daily food intake ration (3 nmol/kg, day 3 after administration): 2 ± 0.5 g
- daily food intake ration (3 nmol/kg, day 4 after administration): 1.1 ± 0.4 g
- daily food intake ration (3 nmol/kg, day 5 after administration): 2.2 ± 1.3 g
- daily food intake ration (3 nmol/kg, day 6 after administration): 2.1 ± 1.1 g
- daily food intake ration (3 nmol/kg, day 7 after administration): 1.1 ± 0.6 g
- daily food intake ration (3 nmol/kg, day 8 after administration): 1.6 ± 0.6 g
- daily food intake ration (3 nmol/kg, day 9 after administration): 2.5 ± 0.9 g
- daily food intake ration (3 nmol/kg, day 10 after administration): 1.3 ± 0.6 g
- daily food intake ration (3 nmol/kg, day 11 after administration): 2 ± 0.3 g
- daily food intake ration (3 nmol/kg, day 12 after administration): 3 ± 1 g
- daily food intake ration (3 nmol/kg, day 13 after administration): 1.8 ± 1 g
- daily food intake ration (3 nmol/kg, day 14 after administration): 2.3 ± 1 g
- daily food intake ration (3 nmol/kg, day 15 after administration): 2.9 ± 0.7 g
- daily food intake ration (3 nmol/kg, day 16 after administration): 1.5 ± 0.7 g
- daily food intake ration (3 nmol/kg, day 17 after administration): 2.2 ± 0.5 g
- daily food intake ration (3 nmol/kg, day 18 after administration): 2.7 ± 0.3 g
- daily food intake ration (3 nmol/kg, day 19 after administration): 1.7 ± 0.5 g
- daily food intake ration (3 nmol/kg, day 20 after administration): 2.2 ± 0.5 g
- daily food intake ration (3 nmol/kg, day 21 after administration): 3.4 ± 0.4 g
- daily food intake ration (3 nmol/kg, day 22 after administration): 1.8 ± 0.5 g
- daily food intake ration (3 nmol/kg, day 23 after administration): 2.6 ± 0.4 g
- daily food intake ration (3 nmol/kg, day 24 after administration): 2.9 ± 0.5 g
- daily food intake ration (3 nmol/kg, day 25 after administration): 1.8 ± 0.8 g
- daily food intake ration (3 nmol/kg, day 26 after administration): 2.5 ± 0.9 g
- daily food intake ration (3 nmol/kg, day 27 after administration): 3.9 ± 0.5 g
- daily food intake ration (3 nmol/kg, day 28 after administration): 1.3 ± 0.6 g
- cumulative food intake (3 nmol/kg, within 5 days after the administration): 7.2 g
- cumulative food intake (10 nmol/kg, 28 days after the administration): 46.8 g
- daily food intake ration (10 nmol/kg, day 1 after administration): 0.3 ± 0.2 g
- daily food intake ration (10 nmol/kg, day 1 after administration, listed as 18#): 0.3 g
- daily food intake ration (10 nmol/kg, day 2 after administration): 0.6 ± 0.6 g
- daily food intake ration (10 nmol/kg, day 3 after administration): 1.1 ± 0.7 g
- daily food intake ration (10 nmol/kg, day 4 after administration): 0.7 ± 0.5 g
- daily food intake ration (10 nmol/kg, day 5 after administration): 1.1 ± 0.5 g
- daily food intake ration (10 nmol/kg, day 6 after administration): 1.5 ± 0.8 g
- daily food intake ration (10 nmol/kg, day 7 after administration): 0.8 ± 0.4 g
- daily food intake ration (10 nmol/kg, day 8 after administration): 1.1 ± 0.7 g
- daily food intake ration (10 nmol/kg, day 9 after administration): 2 ± 0.6 g
- daily food intake ration (10 nmol/kg, day 10 after administration): 0.9 ± 0.4 g
- daily food intake ration (10 nmol/kg, day 11 after administration): 1.8 ± 0.8 g
- daily food intake ration (10 nmol/kg, day 12 after administration): 2.4 ± 0.6 g
- daily food intake ration (10 nmol/kg, day 13 after administration): 0.9 ± 0.4 g
- daily food intake ration (10 nmol/kg, day 14 after administration): 1.7 ± 0.7 g
- daily food intake ration (10 nmol/kg, day 15 after administration): 3 ± 0.9 g
- daily food intake ration (10 nmol/kg, day 16 after administration): 1.2 ± 1 g
- daily food intake ration (10 nmol/kg, day 17 after administration): 2.1 ± 0.9 g
- daily food intake ration (10 nmol/kg, day 18 after administration): 2.9 ± 0.8 g
- daily food intake ration (10 nmol/kg, day 19 after administration): 1.3 ± 0.5 g
- daily food intake ration (10 nmol/kg, day 20 after administration): 2 ± 0.5 g
- daily food intake ration (10 nmol/kg, day 21 after administration): 3.2 ± 0.6 g
- daily food intake ration (10 nmol/kg, day 22 after administration): 1 ± 0.4 g
- daily food intake ration (10 nmol/kg, day 23 after administration): 2.3 ± 0.5 g
- daily food intake ration (10 nmol/kg, day 24 after administration): 2.5 ± 0.6 g
- daily food intake ration (10 nmol/kg, day 25 after administration): 1.6 ± 1.2 g
- daily food intake ration (10 nmol/kg, day 26 after administration): 2.2 ± 0.8 g
- daily food intake ration (10 nmol/kg, day 27 after administration): 3.6 ± 1^ g
- daily food intake ration (10 nmol/kg, day 28 after administration): 1 ± 0.5 g
- cumulative food intake (10 nmol/kg, within 5 days after the administration): 3.9 g
